Measurements from patent US10221173B2, “Chemical compounds” (AstraZeneca AB, priority 2017, dated 2019).
Converted amounts (≈) assume the structure as drawn.

Key:
[1] = Log D (shake flask, 1-octanol/aqueous buffer); format: physicochemical; conditions: 1-octanol/aqueous buffer, pH 7.4, pH 7.4
hERG potassium channel = hERG potassium channel (Homo sapiens (Human), UniProt Q12809)
[2] = target: recombinant human Estrogen Receptor alpha ligand binding domain (ER alpha-LBD (GST)) (Homo sapiens (Human), UniProt P03372); experiment: ERα binding assay (LanthaScreen TR-FRET competition)
Protocol: The ability of compounds to bind to isolated Estrogen Receptor Alpha Ligand binding domain (ER alpha—LBD (GST)) was assessed in competition assays using a LanthaScreen Time-Resolved Fluorescence Resonance Energy Transfer (TR-FRET) detection end-point. For the LanthaScreen TR-FRET endpoint, a suitable fluorophore (Fluormone ES2, ThermoFisher, Product code P2645) and recombinant human Estrogen Receptor alpha ligand binding domain, residues 307-554 (expressed and purified in-house) were used to measure compound binding. The assay principle is that ER alpha-LBD (GST) is added to a fluorescent ligand to form a receptor/fluorophore complex. A terbium-labelled anti-GST antibody (Product code PV3551) is used to indirectly label the receptor by binding to its GST tag, and competitive binding is detected by a test compound's ability to displace the fluorescent ligand, resulting in a loss of TR-FRET signal between the Tb-anti-GST antibody and the tracer. The assay was performed as follows with all reagent additions carried out using the Beckman Coulter BioRAPTR FRD microfluidic workstation: • 1. Acoustic dispense 120 nL of the test compound into a black low volume 384 well assay plates. • 2. Prepare 1× ER alpha-LBD/Tb-antiGST Ab in ES2 screening buffer and incubate for 15 minutes. • 3. […] Cover the assay plate to protect the reagents from light and evaporation, and incubate at room temperature for 4 hours. • 5. Excite at 337 nm and measure the fluorescent emission signal of each well at 490 nm and 520 nm using the BMG PheraSTAR.
TR-FRET dose response data obtained with each compound was exported into a suitable software package (such as Origin or Genedata) to perform curve fitting analysis. Competitive ER alpha binding was expressed as an IC50 value.

[3] = target: T1, Estrogen Receptor (ERα) in MCF-7 cells (Homo sapiens (Human), UniProt P03372); experiment: MCF-7 ER down-regulation assay (immuno-fluorescence); format: cell-based
[4] = target: T1, Estrogen Receptor (ERα) in MCF-7 cells; experiment: Western blotting assay, ER down-regulation in MCF-7; format: cell-based; conditions: MCF-7, 100 nM compound, 48 h, vs 100 nM fulvestrant
[5] = Human plasma protein binding (equilibrium dialysis); format: in vitro ADME
[6] = Thermodynamic solubility (shake-flask); format: physicochemical; conditions: aqueous phosphate buffer, 25 °C, pH 7.4, aqueous buffer, thermodynamic from solid, phosphate buffer pH 7.4, 24 hours
Protocol: The thermodynamic solubility of a research compound is measured under standard conditions. It is a shake-flask approach that uses 10 mM DMSO solutions which are supplied from the Compound Managements liquid store and is a high throughput method. The dried compounds are equilibrated in an aqueous phosphate buffer (pH 7.4) for 24 hours at 25° C., the portion with the dissolved compound is then separated from the remains. The solutions are analyzed and quantified using UPLC/MS/MS, QC-samples are incorporated in each assay-run to ensure the quality of the assay.

[7] = target: estrogen receptor (ERα) in CAMA-1 cells (Homo sapiens (Human), UniProt P03372); experiment: Western blotting assay, ER down-regulation in CAMA-1; format: cell-based; conditions: CAMA-1, 100 nM compound, 48 h, vs 100 nM fulvestrant
ER = ER (Homo sapiens (Human), UniProt P03372); conditions: 500 mg monthly dose; cited from earlier work
Chain of ER (P03372 whole entry): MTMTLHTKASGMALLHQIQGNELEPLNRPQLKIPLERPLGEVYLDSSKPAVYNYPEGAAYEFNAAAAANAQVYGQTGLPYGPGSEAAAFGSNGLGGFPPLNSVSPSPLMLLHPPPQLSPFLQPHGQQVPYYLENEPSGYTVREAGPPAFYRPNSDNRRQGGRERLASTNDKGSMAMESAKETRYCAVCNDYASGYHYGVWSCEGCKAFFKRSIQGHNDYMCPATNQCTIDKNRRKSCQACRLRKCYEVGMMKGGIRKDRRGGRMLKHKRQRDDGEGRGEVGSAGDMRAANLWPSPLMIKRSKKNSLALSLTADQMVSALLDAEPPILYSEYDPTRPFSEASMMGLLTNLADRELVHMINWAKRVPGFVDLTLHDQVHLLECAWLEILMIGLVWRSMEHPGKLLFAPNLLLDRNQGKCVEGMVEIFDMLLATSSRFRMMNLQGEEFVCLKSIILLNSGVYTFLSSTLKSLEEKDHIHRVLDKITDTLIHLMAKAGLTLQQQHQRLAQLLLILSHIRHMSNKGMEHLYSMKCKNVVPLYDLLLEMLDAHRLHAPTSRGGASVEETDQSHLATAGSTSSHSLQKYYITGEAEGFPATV

Chain of hERG potassium channel (Q12809 whole entry, the tested form may be a part): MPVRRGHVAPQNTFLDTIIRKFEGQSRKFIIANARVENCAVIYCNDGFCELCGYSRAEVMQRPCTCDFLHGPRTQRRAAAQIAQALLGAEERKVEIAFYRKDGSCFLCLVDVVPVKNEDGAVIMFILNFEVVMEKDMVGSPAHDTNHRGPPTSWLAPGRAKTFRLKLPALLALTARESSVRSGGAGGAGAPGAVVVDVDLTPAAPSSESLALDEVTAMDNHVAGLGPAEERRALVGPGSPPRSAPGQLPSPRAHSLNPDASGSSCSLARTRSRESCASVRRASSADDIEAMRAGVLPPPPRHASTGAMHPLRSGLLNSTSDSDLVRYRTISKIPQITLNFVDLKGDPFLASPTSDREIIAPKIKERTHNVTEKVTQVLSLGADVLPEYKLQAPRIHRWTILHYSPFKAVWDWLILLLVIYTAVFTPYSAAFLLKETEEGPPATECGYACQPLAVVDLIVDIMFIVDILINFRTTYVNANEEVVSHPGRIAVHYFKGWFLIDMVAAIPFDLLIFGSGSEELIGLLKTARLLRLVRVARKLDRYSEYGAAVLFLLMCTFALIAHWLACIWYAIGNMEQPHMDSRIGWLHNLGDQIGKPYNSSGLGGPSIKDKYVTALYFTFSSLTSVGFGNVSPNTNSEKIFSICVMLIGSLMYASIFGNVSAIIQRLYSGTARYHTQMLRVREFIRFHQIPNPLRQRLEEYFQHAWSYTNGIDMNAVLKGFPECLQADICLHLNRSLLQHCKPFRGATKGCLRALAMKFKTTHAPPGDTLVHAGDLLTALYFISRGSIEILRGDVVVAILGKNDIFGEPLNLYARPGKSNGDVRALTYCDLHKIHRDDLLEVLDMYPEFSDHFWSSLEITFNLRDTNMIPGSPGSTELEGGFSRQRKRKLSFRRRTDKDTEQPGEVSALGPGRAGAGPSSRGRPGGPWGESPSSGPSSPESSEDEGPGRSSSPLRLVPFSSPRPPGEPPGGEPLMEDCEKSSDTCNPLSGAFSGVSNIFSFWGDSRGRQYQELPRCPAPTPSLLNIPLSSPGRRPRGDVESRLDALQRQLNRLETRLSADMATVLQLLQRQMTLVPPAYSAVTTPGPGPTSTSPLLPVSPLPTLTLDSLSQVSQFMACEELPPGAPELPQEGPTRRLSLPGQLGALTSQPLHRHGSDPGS
Chain of estrogen receptor (ERα) in CAMA-1 cells (P03372 whole entry): as the sequence (P03372 whole entry) above
T1 sequence (P03372 whole entry): as above
Chain of recombinant human Estrogen Receptor alpha ligand binding domain (ER alpha-LBD (GST)) (P03372 307-554): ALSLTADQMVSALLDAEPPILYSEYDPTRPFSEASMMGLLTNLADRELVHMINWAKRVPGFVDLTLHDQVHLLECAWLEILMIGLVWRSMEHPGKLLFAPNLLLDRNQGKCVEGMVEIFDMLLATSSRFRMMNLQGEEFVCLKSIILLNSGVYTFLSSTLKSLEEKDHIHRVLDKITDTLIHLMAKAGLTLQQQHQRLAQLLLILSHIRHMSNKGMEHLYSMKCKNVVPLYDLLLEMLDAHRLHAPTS

Row | SMILES | logD [1] | IC50 (hERG potassium channel) [nM] | IC50 [2] [nM] | IC50 [3] [nM] | MCF7 Western % ER deg vs Fv [4] [%] | Human plasma protein binding (% free) [5] [% free] | solubility at 24 h [6] [µM] | CAMA1 Western % ER deg vs Fv [7] [%] | turnover of the receptor in patient samples (ER)
1 | C[C@@H]1Cc2c([nH]c3cc(F)ccc23)[C@@H](c2c(F)ccc(OCCNCCCF)c2F)N1CC(F)(F)CO [Example 61, 3-((1R,3R)-1-(2,6-difluoro-3-(2-((3-fluoropropyl)amino)ethoxy)phenyl)-7-fluoro-3-methyl-1,3,4,9-tetrahydro-2H-pyrido[3,4-b]indol-2-yl)-2,2-difluoropropan-1-ol] | 3 | 2700 | 0.79 | 0.19 | 94 | 2.0 | 446 (≈ 236 µg/mL) | 83 | 
2 | C[C@@H]1Cc2c([nH]c3cccc(F)c23)[C@@H](c2c(F)ccc(OCCNCCCF)c2F)N1CC(F)(F)CO [Example 62, 3-((1R,3R)-1-(2,6-difluoro-3-(2-((3-fluoropropyl)amino)ethoxy)phenyl)-5-fluoro-3-methyl-1,3,4,9-tetrahydro-2H-pyrido[3,4-b]indol-2-yl)-2,2-difluoropropan-1-ol] | 3.3 | 5000 | 0.71 | 0.076 | 95 | 1.2 | 302 (≈ 160 µg/mL) | 96 | 
3 | Cc1ccc2[nH]c3c(c2c1)C[C@@H](C)N(CC(F)(F)CO)[C@@H]3c1c(F)ccc(OCCNCCCF)c1F [Example 63, 3-((1R,3R)-1-(2,6-difluoro-3-(2-((3-fluoropropyl)amino)ethoxy)phenyl)-3,6-dimethyl-1,3,4,9-tetrahydro-2H-pyrido[3,4-b]indol-2-yl)-2,2-difluoropropan-1-ol] | 3.1 | 4700 | 1.1 | 0.32 | 94 | 0.97 | 273 (≈ 143 µg/mL) | 85 | 
4 | C[C@@H]1Cc2c([nH]c3ccc(F)cc23)[C@@H](c2c(F)cnc(OCCNCCCF)c2F)N1CC(F)(F)CO [Example 65, 3-((1R,3R)-1-(3,5-difluoro-2-(2-((3-fluoropropyl)amino)ethoxy)pyridin-4-yl)-6-fluoro-3-methyl-1,3,4,9-tetrahydro-2H-pyrido[3,4-b]indol-2-yl)-2,2-difluoropropan-1-ol] | 3 | 9400 | 0.64 | 0.058 | 94 | 1.9 | 462 (≈ 245 µg/mL) | 97 | 
5 | C[C@@H]1Cc2c([nH]c3ccccc23)[C@@H](c2c(F)ccc(NCCNCCCF)c2F)N1CC(F)(F)F [Example 88, N1-(2,4-difluoro-3-((1R,3R)-3-methyl-2-(2,2,2-trifluoroethyl)-2,3,4,9-tetrahydro-1H-pyrido[3,4-b]indol-1-yl)phenyl)-N2-(3-fluoropropyl)ethane-1,2-diamine] | 3.4 | 4800 | 2.2 | 0.28 | 90 | 0.58 | 118 (≈ 58.8 µg/mL) | 93 | 
6 | COc1ccc(NCCNCCCF)c(F)c1[C@@H]1c2[nH]c3ccccc3c2C[C@@H](C)N1CC(F)(F)F [Example 90, N1-(2-fluoro-4-methoxy-3-((1R,3R)-3-methyl-2-(2,2,2-trifluoroethyl)-2,3,4,9-tetrahydro-1H-pyrido[3,4-b]indol-1-yl)phenyl)-N2-(3-fluoropropyl)ethane-1,2-diamine] | 2.8 | 5000 | 0.65 | 0.3 | 76 | 1.1 | 365 (≈ 186 µg/mL) | 93 | 
7 | Cc1c(OCCNCCCF)ccnc1[C@@H]1c2[nH]c3ccccc3c2C[C@@H](C)N1CC(F)(F)CO [Example 96, 2,2-difluoro-3-((1S,3R)-1-(4-(2-((3-fluoropropyl)amino)ethoxy)-3-methylpyridin-2-yl)-3-methyl-1,3,4,9-tetrahydro-2H-pyrido[3,4-b]indol-2-yl)propan-1-ol] | 2.4 | 10000 | 1.4 | 0.2 | 94 | 7.1 | 960 (≈ 471 µg/mL) | 100 | 
8 | C[C@@H]1Cc2c([nH]c3ccccc23)[C@@H](c2nccc(OCCNCCCF)c2F)N1CC(F)(F)CO [Example 97, 2,2-difluoro-3-((1S,3R)-1-(3-fluoro-4-(2-((3-fluoropropyl)amino)ethoxy)pyridin-2-yl)-3-methyl-1,3,4,9-tetrahydro-2H-pyrido[3,4-b]indol-2-yl)propan-1-ol] | 1.8 | 18000 | 2.2 | 0.66 | 89 | 6.8 | > 1000 | 84 | 
9 | C[C@@H]1Cc2c([nH]c3ccccc23)[C@@H](c2c(F)cnc(OCCNCCCF)c2F)N1CC(F)(F)F [Example 107, N-(2-((3,5-difluoro-4-((1R,3R)-3-methyl-2-(2,2,2-trifluoroethyl)-2,3,4,9-tetrahydro-1H-pyrido[3,4-b]indol-1-yl)pyridin-2-yl)oxy)ethyl)-3-fluoropropan-1-amine] | 3.6 | 8100 | 1.3 | 0.21 | 95 | 1 | 120 (≈ 60.1 µg/mL) | 98 | 
10 | C[C@]12CC[C@@H]3c4ccc(O)cc4C[C@@H](CCCCCCCCC[S+]([O-])CCCC(F)(F)C(F)(F)F)[C@H]3[C@@H]1CC[C@@H]2O (stereo partly shown) [Fulvestrant] |  |  |  |  |  |  |  |  | less than 50%
